Assay results published in ChEMBL document CHEMBL3862006, “Design and synthesis of peptide-based macrocyclic cyclophilin inhibitors” (Bioorg Med Chem Lett, 2016).
pKd: −log10 of the molar value. Numbered stars: 1 amine (or outer) side, 2 acyl side, 3 side chain; on linkers, the order of the positions; unused ones are H or OH. Peptide text beside a SMILES is read from it. * marks the point of attachment. pNA = O=[N+]([O-])c1ccc(N*)cc1; Suc = O=C(CCC(=O)[*:2])[*:1]

Assays:
[1] = molecular target: T1, Peptidyl-prolyl cis-trans isomerase A (Homo sapiens, UniProt P62937); test: Inhibition of fluorescent cyclosporin A binding to human CypA by TR-FRET assay
T1 sequence (P62937 whole entry): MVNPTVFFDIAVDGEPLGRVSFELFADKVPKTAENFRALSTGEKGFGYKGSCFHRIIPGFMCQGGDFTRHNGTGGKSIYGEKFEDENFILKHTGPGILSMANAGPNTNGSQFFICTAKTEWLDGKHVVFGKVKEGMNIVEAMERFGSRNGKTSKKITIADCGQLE

[2] = Apparent permeability across basolateral to apical side in human Caco2 cells; format: ADME, cell-based; details: Caco-2
[3] = Apparent permeability across apical to basolateral side in human Caco2 cells; format: ADME, cell-based; details: Caco-2
[4] = Distribution coefficient, logD of the compound; format: physicochemical; details: octanol/water
[5] = Unbound fraction in human plasma; format: ADME, cell-free
[6] = Aqueous solubility of the compound; format: physicochemical; details: buffer
[7] = Intrinsic clearance in human liver microsomes; format: ADME; details: read-out: CLH
[8] = molecular target: T1, Peptidyl-prolyl cis-trans isomerase A; test: Binding affinity to CypA (unknown origin) by fluorescence titration method

SMILES	pKd [1]	also measured
C[C@@]1(NCCCc2ccccc2)COCCCCOC[C@@H](C(=O)O)NC(=O)[C@@H]2CCCN2C(=O)CNC1=O	< 3.22	
C[C@@]1(NCC2CCOCC2)COCCCCOC[C@@H](C(=O)O)NC(=O)[C@@H]2CCCN2C(=O)CNC1=O	< 3.22	
C[C@@]1(NCCc2ccccc2)COCCCCOC[C@@H](C(=O)O)NC(=O)[C@@H]2CCCN2C(=O)CNC1=O.Cl	4.98	Papp B→A [2]: 0.17 ×10⁻⁶ cm/s; Papp A→B [3]: 0.1 ×10⁻⁶ cm/s; logD [4]: -1.8; fraction unbound [5]: 1; solubility [6]: > 1000 µM; microsomal CLint [7]: < 3 µL/min/mg
C[C@@]1(NCC2CCCCC2)COCCCCOC[C@@H](C(=O)O)NC(=O)[C@@H]2CCCN2C(=O)CNC1=O	4.49	
C[C@@]1(NC(=O)c2cc(Cl)cc(Cl)c2)COCCCCOC[C@@H](C(=O)O)NC(=O)[C@@H]2CCCN2C(=O)CNC1=O	< 3.22	
CCCCCCC(=O)N[C@]1(C)COCCCCOC[C@@H](C(=O)O)NC(=O)[C@@H]2CCCN2C(=O)CNC1=O	< 3.22	
C[C@@]1(N)COCCCCOC[C@@H](C(=O)O)NC(=O)[C@@H]2CCCN2C(=O)CNC1=O	3.90	
C[C@@]1(NCC2CCCC2)COCCCCOC[C@@H](C(=O)O)NC(=O)[C@@H]2CCCN2C(=O)CNC1=O	< 3.22	
C[C@@]1(NCC2CCCCCCC2)COCCCCOC[C@@H](C(=O)O)NC(=O)[C@@H]2CCCN2C(=O)CNC1=O	5.27	
C[C@@]1(NC(=O)C2CCC2)COCCCCOC[C@@H](C(=O)O)NC(=O)[C@@H]2CCCN2C(=O)CNC1=O	3.86	
C[C@@]1(NCc2ccccc2)COCCCCOC[C@@H](C(=O)O)NC(=O)[C@@H]2CCCN2C(=O)CNC1=O	< 3.22	
CC(=O)N[C@]1(C)COCCCCOC[C@@H](C(=O)O)NC(=O)[C@@H]2CCCN2C(=O)CNC1=O	< 3.22	
C[C@H](NC(=O)CCC(=O)O)C(=O)NCC(=O)N1CCC[C@H]1C(=O)N[C@@H](Cc1ccccc1)C(=O)Nc1ccc([N+](=O)[O-])cc1 (Suc-AGPF-pNA)		pKd [8]: 3.87
